Laboratory results published in patent publication US20250368633A1, “AZEPINE FUSED RING COMPOUND AS RIPK1 INHIBITOR AND USE THEREOF” (ARTIVILA BIOPHARMA, priority 2022, published 2025).

Tests used:
[1] = target: T1, RIPK1 kinase (Homo sapiens, UniProt Q13546); test: In vitro RIPK1 kinase activity IC50 assay (ADP-Glo); assay type: biochemical; details: ATP 10 μM; MBP substrate 100 μg/mL; 8 concentration points; read-out: IC50 range of compounds for RIPK1 kinase activity
T1 construct: purchased Promega VA7593
T1 sequence (Q13546 1-671): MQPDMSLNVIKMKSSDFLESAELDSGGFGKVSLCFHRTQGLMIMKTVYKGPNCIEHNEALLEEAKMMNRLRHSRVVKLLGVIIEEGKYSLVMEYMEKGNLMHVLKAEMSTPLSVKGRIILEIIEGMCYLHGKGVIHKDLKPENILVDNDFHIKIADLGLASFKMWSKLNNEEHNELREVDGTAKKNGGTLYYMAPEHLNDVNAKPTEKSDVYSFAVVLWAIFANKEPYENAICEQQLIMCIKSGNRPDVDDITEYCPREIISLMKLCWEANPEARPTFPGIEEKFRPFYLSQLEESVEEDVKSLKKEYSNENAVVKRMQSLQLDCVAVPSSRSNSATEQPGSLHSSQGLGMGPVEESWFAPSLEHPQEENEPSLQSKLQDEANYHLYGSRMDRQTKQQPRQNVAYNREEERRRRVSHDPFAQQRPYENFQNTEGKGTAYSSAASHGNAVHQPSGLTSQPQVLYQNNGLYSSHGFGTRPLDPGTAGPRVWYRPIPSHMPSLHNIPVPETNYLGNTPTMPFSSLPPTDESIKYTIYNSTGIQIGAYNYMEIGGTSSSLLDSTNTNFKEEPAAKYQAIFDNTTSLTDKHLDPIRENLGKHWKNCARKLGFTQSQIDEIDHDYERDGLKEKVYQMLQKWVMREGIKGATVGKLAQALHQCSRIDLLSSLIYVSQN
How it was run: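 Human RIPK1 preincubated 15 min at room temperature with compound (8-point 1:5 dilution series, 1% DMSO in kinase buffer D). Reaction then ran 1 h with 10 μM ATP and 100 μg/mL MBP substrate; ADP measured by ADP-Glo luminescence, IC50 from four-parameter nonlinear fit.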

[2] = system: U937 cells; test: EC50 of necroptosis inhibition in U937 cells (TSZ-induced, CellTiter-Glo); assay type: cell-based; details: Homo sapiens, U-937; TSZ (hTNF-α, SM-164, Z-VAD-FMK) 20 hours; 10 concentration points; read-out: EC50 intervals of necroptosis inhibition in U937 cells
How it was run: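 U937 cells pretreated 15 min with compound (10-point, 1:3 series), then necroptosis induced by TSZ (hTNF-α, SM-164, Z-VAD-FMK) for 20 h at 37 °C. Viability measured as ATP by CellTiter-Glo luminescence; inhibition normalised to untreated and TSZ-only wells, EC50 from four-parameter fit.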

IC50 [1] [µM] | SMILES | EC50 [2] [µM]
< 0.1 | CN1C(=O)[C@@H](NC(=O)C(=O)NCCc2ccccc2)COc2ccc(C#CCN3CCC(O)CC3)cc21 [Example 81, (S)—N^1-(7-(3-(4-hydroxypiperidin-1-yl)prop-1-yn-1-yl)-5-methyl-4-oxo-2,3,4,5-tetrahydrobenzo[b][1,4]oxazepin-3-yl)-N^2-phenethyloxalamide] | < 0.1
< 0.1 | CN1C(=O)[C@@H](NC(=O)C(=O)NCCc2ccccc2)COc2ccc(C#CCN3C(=O)CCC3=O)cc21 [Example 84, (S)—N^1-(7-(3-(2,5-dioxopyrrolidin-1-yl)prop-1-yn-1-yl)-5-methyl-4-oxo-2,3,4,5-tetrahydrobenzo[b][1,4]oxazepin-3-yl)-N^2-phenethyloxalamide] | < 0.1
< 0.1 | CN1C(=O)[C@@H](NC(=O)C(=O)NCCc2ccccc2)COc2ccc(C#CCN3CCNC(=O)C3)cc21 [Example 85, (S)—N^1-(5-methyl-4-oxo-7-(3-(3-oxopiperazin-1-yl)prop-1-yn-1-yl)-2,3,4,5-tetrahydrobenzo[b][1, 4]oxazepin-3-yl)-N^2-phenethyloxalamide] | < 0.1
< 0.1 | CN1C(=O)[C@@H](NC(=O)C(=O)NCCc2ccccc2)COc2ccc(C#CCNC(=O)OC(C)(C)C)cc21 [Example 86, tert-butyl (S)-(3-(5-methyl-4-oxo-3-(2-oxo-2-(phenethylamino)acetamido)-2,3,4,5-tetrahydrobenzo[b][1,4]oxazepin-7-yl)prop-2-yn-1-yl)carbamate] | < 0.1
< 0.1 | CN1C(=O)[C@@H](NC(=O)C(=O)NCCc2ccccc2)COc2ccc(C#CCNC(=O)CO)cc21 [Example 88, (S)—N^1-(7-(3-(2-hydroxyacetamido)prop-1-yn-1-yl)-5-methyl-4-oxo-2,3,4,5-tetrahydrobenzo[b][1, 4]oxazepin-3-yl)-N^2-phenethyloxalamide] | < 0.1
< 0.1 | C=CC(=O)NCC#Cc1ccc2c(c1)N(C)C(=O)[C@@H](NC(=O)C(=O)NCCc1ccccc1)CO2 [Example 89, (S)—N^1-(7-(3-acrylamidoprop-1-yn-1-yl)-5-methyl-4-oxo-2,3,4,5-tetrahydrobenzo[b][1,4]oxazepin-3-yl)-N^2-phenethyloxalamide] | < 0.1
< 0.1 | CN1C(=O)[C@@H](NC(=O)C(=O)NCCc2ccccc2)COc2ccc(C#CC3CN(C=O)C3)cc21 [Example 91, (S)—N^1-(7-((1-formylazetidin-3-yl)ethynyl)-5-methyl-4-oxo-2,3,4,5-tetrahydrobenzo[b][1,4]oxazepin-3-yl)-N^2-phenethyloxalamide] | < 0.1
< 0.1 | CN1C(=O)[C@@H](NC(=O)C(=O)NCCc2ccccc2)COc2ccc(C#CC3(O)CN(C=O)C3)cc21 [Example 92, (S)—N^1-(7-((1-formyl-3-hydroxyazetidin-3-yl)ethynyl)-5-methyl-4-oxo-2,3,4,5-tetrahydrobenzo[b][1,4]oxazepin-3-yl)-N^2-phenethyloxalamide] | < 0.1
< 0.1 | CCOC(=O)CCC#Cc1ccc2c(c1)N(C)C(=O)[C@@H](NC(=O)C(=O)NCCc1ccccc1)CO2 [Example 94, ethyl (S)-5-(5-methyl-4-oxo-3-(2-oxo-2-(phenethylamino)acetamido)-2,3,4,5-tetrahydrobenzo[b][1,4]oxazepin-7-yl) pent-4-ynoate] | 0.1 to 0.5
< 0.1 | CN1C(=O)[C@@H](NC(=O)C(=O)NCc2ccccc2)COc2ccc(C#CCn3ccnc3)cc21 [Example 104, (S)—N^1-(7-(3-(1H-imidazol-1-yl)prop-1-yn-1-yl)-5-methyl-4-oxo-2,3,4,5-tetrahydrobenzo[b][1,4]oxazepin-3-yl)-N^2-benzyloxalamide] | < 0.1
< 0.1 | CN1C(=O)[C@@H](NC(=O)C(=O)NCc2ccccc2)COc2ccc(C#CCN3CCOCC3)cc21 [Example 106, (S)—N^1-benzyl-N^2-(5-methyl-7-(3-morpholinoprop-1-yn-1-yl)-4-oxo-2,3,4,5-tetrahydrobenzo[b][1, 4]oxazepin-3-yl)oxalamide] | < 0.1
< 0.1 | CN1C(=O)[C@@H](NC(=O)C(=O)NCc2ccccc2)COc2ccc(C#CCN3CCNC(=O)C3)cc21 [Example 107, (S)—N^1-benzyl-N^2-(5-methyl-4-oxo-7-(3-(3-oxopiperazin-1-yl)prop-1-yn-1-yl)-2,3,4,5-tetrahydrobenzo[b][1,4]oxazepin-3-yl)oxalamide] | < 0.1
< 0.1 | CN1C(=O)[C@H](NC(=O)C(=O)NCCc2cccc(F)c2)COc2ccc(C#CCCO)cc21 [Example 109, (R)—N^1-(3-fluorophenethyl)-N^2-(7-(4-hydroxybut-1-yn-1-yl)-5-methyl-4-oxo-2,3,4,5-tetrahydrobenzo[b][1,4]oxazepin-3-yl)oxalamide] | < 0.1
< 0.1 | CN1C(=O)[C@@H](NC(=O)C(=O)NCCc2cccc(F)c2)COc2ccc(C#CC3(O)COC3)cc21 [Example 110, (S)—N^1-(3-fluorophenethyl)-N^2-(7-((3-hydroxyoxetan-3-yl)ethynyl)-5-methyl-4-oxo-2,3,4,5-tetrahydrobenzo[b][1,4]oxazepin-3-yl)oxalamide] | < 0.1
< 0.1 | CN1C(=O)[C@@H](NC(=O)C(=O)NCCc2cccc(F)c2)COc2ccc(C#CCN3CC[C@@H](O)C3)cc21 [Example 114, N^1-(3-fluorophenethyl)-N^2-((S)-7-(3-((R)-3-hydroxypyrrolidin-1-yl)prop-1-yn-1-yl)-5-methyl-4-oxo-2,3,4,5-tetrahydrobenzo[b][1,4]oxazepin-3-yl)oxalamide] | < 0.1
< 0.1 | CN1C(=O)[C@@H](NC(=O)C(=O)NCCc2cccc(F)c2)COc2ccc(C#CCN3CC[C@H](O)C3)cc21 [Example 115, N^1-(3-fluorophenethyl)-N^2-((S)-7-(3-((S)-3-hydroxypyrrolidin-1-yl)prop-1-yn-1-yl)-5-methyl-4-oxo-2,3,4,5-tetrahydrobenzo[b][1,4]oxazepin-3-yl)oxalamide] | < 0.1
< 0.1 | CN1C(=O)[C@@H](NC(=O)C(=O)NCCc2cccc(F)c2)COc2ccc(C#Cc3cccnc3)cc21 [Example 117, (S)—N^1-(3-fluorophenethyl)-N^2-(5-methyl-4-oxo-7-(pyridin-3-ylethynyl)-2,3,4,5-tetrahydrobenzo[b][1,4]oxazepin-3-yl)oxalamide] | < 0.1
< 0.1 | CN1C(=O)[C@@H](NC(=O)C(=O)NCCc2cccc(F)c2)COc2ccc(C#CCN3CCC(=O)CC3)cc21 [Example 118, (S)—N^1-(3-fluorophenethyl)-N^2-(5-methyl-4-oxo-7-(3-(4-oxopiperidin-1-yl)prop-1-yn-1-yl)-2,3,4,5-tetrahydrobenzo[b][1,4]oxazepin-3-yl)oxalamide] | < 0.1
< 0.1 | CN1C(=O)[C@@H](NC(=O)C(=O)NCCc2cccc(F)c2)COc2ccc(C#CCN3CCOCC3)cc21 [Example 120, (S)—N^1-(3-fluorophenethyl)-N^2-(5-methyl-7-(3-morpholinoprop-1-yn-1-yl)-4-oxo-2,3,4,5-tetrahydrobenzo[b][1,4]oxazepin-3-yl)oxalamide] | < 0.1
< 0.1 | CN1C(=O)[C@@H](NC(=O)C(=O)NCCc2cccc(F)c2)COc2ccc(C#CCN3C(=O)CCC3=O)cc21 [Example 122, (S)—N^1-(7-(3-(2,5-dioxopyrrolidin-1-yl)prop-1-yn-1-yl)-5-methyl-4-oxo-2,3,4,5-tetrahydrobenzo[b][1,4]oxazepin-3-yl)-N^2-(3-fluorophenethyl)oxalamide] | < 0.1
< 0.1 | CN1C(=O)[C@@H](NC(=O)C(=O)NCCc2cccc(F)c2)COc2ccc(C#CCN3CCNC(=O)C3)cc21 [Example 123, (S)—N^1-(3-fluorophenethyl)-N^2-(5-methyl-4-oxo-7-(3-(3-oxopiperazin-1-yl)prop-1-yn-1-yl)-2,3,4,5-tetrahydrobenzo[b][1,4]oxazepin-3-yl)oxalamide] | < 0.1
< 0.1 | C[C@@H](NC(=O)C(=O)N[C@H]1COc2ccc(C#CCN3CC[C@@H](O)C3)cc2N(C)C1=O)c1ccccc1 [Example 128, N^1-((S)-7-(3-((R)-3-hydroxypyrrolidin-1-yl)prop-1-yn-1-yl)-5-methyl-4-oxo-2,3,4,5-tetrahydrobenzo[b][1,4]oxazepin-3-yl)-N^2-((R)-1-phenylethyl)oxalamide] | < 0.1
